{
  "source": "patent EP0565593B1",
  "about": "“REDUCING PESTICIDAL INTERACTIONS IN CROPS” (priority 1990, dated 1992)",
  "system": "Corn",
  "test": "Greenhouse test, combination of Procedures II and III: insecticide in-furrow or in cover layer, herbicide and antidote incorporated in cover layer (Examples 1-3, 6; Tables 1-3, 6)",
  "type": "in vivo",
  "settings": "for % Injury Corn / % Corn Injury PN 3320 / % Corn Injury PN 3377: 3 weeks; for Percent Injury Corn: 7 weeks; for corn injury safened: 0.14 kg/ha herbicide plus Insecticide No. 1, Antidote No. 1 0.42 kg/ha",
  "key": {"[1]": {"settings": "Ex. 6: Antidote 1 0.14 + Herbicide 1 0.14 Kg/Ha"}, "[2]": {"settings": "Ex. 6: Antidote 1 0.42 + Herbicide 1 0.14 Kg/Ha"}, "[3]": {"settings": "Ex. 6: Antidote 1 0.56 + Herbicide 1 0.56 Kg/Ha"}, "[4]": {"settings": "Ex. 6: Antidote 1 1.68 + Herbicide 1 0.56 Kg/Ha"}, "[5]": {"settings": "Ex. 6: Insecticide 1 0.23 Kg/305m + Antidote 1 0.14 + Herbicide 1 0.14 Kg/Ha"}, "[6]": {"settings": "Ex. 6: Insecticide 1 0.23 Kg/305m + Antidote 1 0.42 + Herbicide 1 0.14 Kg/Ha"}, "[7]": {"settings": "Ex. 6: Insecticide 1 0.23 Kg/305m + Antidote 1 0.56 + Herbicide 1 0.56 Kg/Ha"}, "[8]": {"settings": "Ex. 6: Insecticide 1 0.23 Kg/305m + Antidote 1 1.68 + Herbicide 1 0.56 Kg/Ha"}, "[9]": {"settings": "Ex. 6: Insecticide 2 0.23 Kg/305m + Antidote 1 0.14 + Herbicide 1 0.14 Kg/Ha"}, "[10]": {"settings": "Ex. 6: Insecticide 2 0.23 Kg/305m + Antidote 1 0.42 + Herbicide 1 0.14 Kg/Ha"}, "[11]": {"settings": "Ex. 6: Insecticide 2 0.23 Kg/305m + Antidote 1 0.56 + Herbicide 1 0.56 Kg/Ha"}, "[12]": {"settings": "Ex. 6: Insecticide 2 0.23 Kg/305m + Antidote 1 1.68 + Herbicide 1 0.56 Kg/Ha"}},
  "data": [
    {"smiles": "CC1(C)OC(c2ccco2)CN1C(=O)C(Cl)Cl", "note": "(stereo not shown) [Antidote No. 1, Oxazolidine, 3-(dichloroacetyl)-2,2-dimethyl-5-(2-furanyl)-]", "values": [
      {"measurement": "% Injury Corn", "setting": "Ex. 2: Insecticide 1 0.11 kg/305m + Antidote 1 0.42 + Herbicide 1 0.14 Kg/Ha", "value": 6, "unit": "%"},
      {"measurement": "% Injury Corn", "setting": "Ex. 2: Insecticide 1 0.11 kg/305m + Antidote 1 0.56 + Herbicide 1 0.56 Kg/Ha", "value": 30, "unit": "%"},
      {"measurement": "% Injury Corn", "setting": "Ex. 2: Insecticide 1 0.11 kg/305m + Antidote 1 1.68 + Herbicide 1 0.56 Kg/Ha", "value": 18, "unit": "%"},
      {"measurement": "% Injury Corn", "setting": "Ex. 2: Insecticide 1 0.23 Kg/305m + Antidote 1 0.14 + Herbicide 1 0.14 Kg/Ha", "value": 18, "unit": "%"},
      {"measurement": "% Injury Corn", "setting": "Ex. 2: Insecticide 1 0.23 Kg/305m + Antidote 1 0.22 + Herbicide 1 0.14 + Herbicide 2 4.48 Kg/Ha", "value": 20, "unit": "%"},
      {"measurement": "% Injury Corn", "setting": "Ex. 2: Insecticide 1 0.23 Kg/305m + Antidote 1 0.42 + Herbicide 1 0.14 Kg/Ha", "value": 6, "unit": "%"},
      {"measurement": "% Injury Corn", "setting": "Ex. 2: Insecticide 1 0.23 Kg/305m + Antidote 1 0.56 + Herbicide 1 0.56 Kg/Ha", "value": 33, "unit": "%"},
      {"measurement": "% Injury Corn", "setting": "Ex. 2: Insecticide 1 0.23 Kg/305m + Antidote 1 1.68 + Herbicide 1 0.56 Kg/Ha", "value": 34, "unit": "%"},
      {"measurement": "% Injury Corn", "setting": "Ex. 2: Insecticide 2 3.36 Kg/Ha + Antidote 1 0.22 + Herbicide 1 0.14 + Herbicide 2 4.48 Kg/Ha", "value": 29, "unit": "%"},
      {"measurement": "% Injury Corn", "setting": "Ex. 2: Insecticide 2 3.36 Kg/Ha + Antidote 1 0.22 + Herbicide 2 4.48 Kg/Ha", "value": 19, "unit": "%"},
      {"measurement": "% Injury Corn", "setting": "Ex. 3: Antidote 1 0.14 + Herbicide 1 0.14 Kg/Ha", "value": 3, "unit": "%"},
      {"measurement": "% Injury Corn", "setting": "Ex. 3: Antidote 1 0.22 + Herbicide 2 4.48 Kg/Ha", "value": 13, "unit": "%"},
      {"measurement": "% Injury Corn", "setting": "Ex. 3: Antidote 1 0.42 + Herbicide 1 0.14 Kg/Ha", "value": 3, "unit": "%"},
      {"measurement": "% Injury Corn", "setting": "Ex. 3: Antidote 1 0.56 + Herbicide 1 0.56 Kg/Ha", "value": 8, "unit": "%"},
      {"measurement": "% Injury Corn", "setting": "Ex. 3: Antidote 1 1.68 + Herbicide 1 0.56 Kg/Ha", "value": 3, "unit": "%"},
      {"measurement": "corn injury", "setting": "Ex. 3: Herbicide No. 1 + Insecticide 3 or 4, Antidote No. 1 at 1:1 ratio, all cases", "value": "less than 5%"},
      {"measurement": "% Injury Corn", "setting": "Ex. 3: Insecticide 3 (227g) + Antidote 1 0.14 + Herbicide 1 0.14 Kg/Ha", "value": 0, "unit": "%"},
      {"measurement": "% Injury Corn", "setting": "Ex. 3: Insecticide 3 (227 g) + Antidote 1 0.22 + Herbicide 1 0.14 + Herbicide 2 4.48 Kg/Ha", "value": 18, "unit": "%"},
      {"measurement": "% Injury Corn", "setting": "Ex. 3: Insecticide 3 (227 g) + Antidote 1 0.22 + Herbicide 2 4.48 Kg/Ha", "value": 25, "unit": "%"},
      {"measurement": "% Injury Corn", "setting": "Ex. 3: Insecticide 3 (227g) + Antidote 1 0.42 + Herbicide 1 0.14 Kg/Ha", "value": 20, "unit": "%"},
      {"measurement": "% Injury Corn", "setting": "Ex. 3: Insecticide 3 (227g) + Antidote 1 1.68 + Herbicide 1 0.56 Kg/Ha", "value": 8, "unit": "%"},
      {"measurement": "% Injury Corn", "setting": "Ex. 3: Insecticide 4 (227g) + Antidote 1 0.14 + Herbicide 1 0.14 Kg/Ha", "value": 3, "unit": "%"},
      {"measurement": "% Injury Corn", "setting": "Ex. 3: Insecticide 4 (227g) + Antidote 1 0.22 + Herbicide 1 0.14 + Herbicide 2 4.48 Kg/Ha", "value": 48, "unit": "%"},
      {"measurement": "% Injury Corn", "setting": "Ex. 3: Insecticide 4 (227g) + Antidote 1 0.22 + Herbicide 2 4.48 Kg/Ha", "value": 45, "unit": "%"},
      {"measurement": "% Injury Corn", "setting": "Ex. 3: Insecticide 4 (227g) + Antidote 1 0.42 + Herbicide 1 0.14 Kg/Ha", "value": 5, "unit": "%"},
      {"measurement": "% Injury Corn", "setting": "Ex. 3: Insecticide 4 (227g) + Antidote 1 0.56 + Herbicide 1 0.56 Kg/Ha", "value": 28, "unit": "%"},
      {"measurement": "% Injury Corn", "setting": "Ex. 3: Insecticide 4 (227g) + Antidote 1 1.68 + Herbicide 1 0.56 Kg/Ha", "value": 5, "unit": "%"},
      {"measurement": "% Corn Injury PN 3320", "setting": "[1]", "value": 15, "unit": "%"},
      {"measurement": "% Corn Injury PN 3377", "setting": "[1]", "value": 15, "unit": "%"},
      {"measurement": "% Corn Injury PN 3320", "setting": "[2]", "value": 10, "unit": "%"},
      {"measurement": "% Corn Injury PN 3377", "setting": "[2]", "value": 0, "unit": "%"},
      {"measurement": "% Corn Injury PN 3320", "setting": "[3]", "value": 68, "unit": "%"},
      {"measurement": "% Corn Injury PN 3377", "setting": "[3]", "value": 0, "unit": "%"},
      {"measurement": "% Corn Injury PN 3320", "setting": "[4]", "value": 43, "unit": "%"},
      {"measurement": "% Corn Injury PN 3377", "setting": "[4]", "value": 0, "unit": "%"},
      {"measurement": "% Corn Injury PN 3320", "setting": "[5]", "value": 40, "unit": "%"},
      {"measurement": "% Corn Injury PN 3377", "setting": "[5]", "value": 18, "unit": "%"},
      {"measurement": "% Corn Injury PN 3320", "setting": "[6]", "value": 25, "unit": "%"},
      {"measurement": "% Corn Injury PN 3377", "setting": "[6]", "value": 3, "unit": "%"},
      {"measurement": "% Corn Injury PN 3320", "setting": "[7]", "value": 40, "unit": "%"},
      {"measurement": "% Corn Injury PN 3377", "setting": "[7]", "value": 35, "unit": "%"},
      {"measurement": "% Corn Injury PN 3320", "setting": "[8]", "value": 35, "unit": "%"},
      {"measurement": "% Corn Injury PN 3377", "setting": "[8]", "value": 35, "unit": "%"},
      {"measurement": "% Corn Injury PN 3320", "setting": "[9]", "value": 15, "unit": "%"},
      {"measurement": "% Corn Injury PN 3377", "setting": "[9]", "value": 0, "unit": "%"},
      {"measurement": "% Corn Injury PN 3320", "setting": "[10]", "value": 10, "unit": "%"},
      {"measurement": "% Corn Injury PN 3377", "setting": "[10]", "value": 13, "unit": "%"},
      {"measurement": "% Corn Injury PN 3320", "setting": "[11]", "value": 68, "unit": "%"},
      {"measurement": "% Corn Injury PN 3377", "setting": "[11]", "value": 10, "unit": "%"},
      {"measurement": "% Corn Injury PN 3320", "setting": "[12]", "value": 43, "unit": "%"},
      {"measurement": "% Corn Injury PN 3377", "setting": "[12]", "value": 28, "unit": "%"},
      {"measurement": "Percent Injury Corn", "setting": "Insecticide 1 0.23 kg/305m + Antidote 1 0.14 + Herbicide 1 0.14 Kg/Ha", "value": 8, "unit": "%"},
      {"measurement": "Percent Injury Corn", "setting": "Insecticide 1 0.23 kg/305m + Antidote 1 0.14 Kg/Ha, no herbicide", "value": 0, "unit": "%"},
      {"measurement": "Percent Injury Corn", "setting": "Insecticide 1 0.23 kg/305m + Antidote 1 0.56 + Herbicide 1 0.56 Kg/Ha", "value": 25, "unit": "%"},
      {"measurement": "Percent Injury Corn", "setting": "Insecticide 1 0.23 kg/305m + Antidote 1 0.56 Kg/Ha, no herbicide", "value": 0, "unit": "%"},
      {"measurement": "Percent Injury Corn", "setting": "Insecticide 1 0.23 kg/305m + Antidote 1 2.24 + Herbicide 1 2.24 Kg/Ha", "value": 77, "unit": "%"},
      {"measurement": "Percent Injury Corn", "setting": "Insecticide 1 0.23 kg/305m + Antidote 1 2.24 Kg/Ha, no herbicide", "value": 0, "unit": "%"},
      {"measurement": "Percent Injury Corn", "setting": "Insecticide 1 (H2O) (crystals scattered in-furrow) + Antidote 1 2 + Herbicide 1 2 Kg/Ha", "value": 78, "unit": "%"},
      {"measurement": "Percent Injury Corn", "setting": "Insecticide 1 (H2O) (crystals scattered in-furrow) + Antidote 1 2 Kg/Ha", "value": 13, "unit": "%"},
      {"measurement": "Percent Injury Corn", "setting": "Insecticide 2 3.36 kg/ha + Antidote 1 0.14 + Herbicide 1 0.14 Kg/Ha", "value": 75, "unit": "%"},
      {"measurement": "Percent Injury Corn", "setting": "Insecticide 2 3.36 kg/ha + Antidote 1 0.14 Kg/Ha, no herbicide", "value": 0, "unit": "%"},
      {"measurement": "Percent Injury Corn", "setting": "Insecticide 2 3.36 kg/ha + Antidote 1 0.56 + Herbicide 1 0.56 Kg/Ha", "value": 70, "unit": "%"},
      {"measurement": "Percent Injury Corn", "setting": "Insecticide 2 3.36 kg/ha + Antidote 1 0.56 Kg/Ha, no herbicide", "value": 0, "unit": "%"},
      {"measurement": "Percent Injury Corn", "setting": "Insecticide 2 3.36 kg/ha + Antidote 1 2.24 + Herbicide 1 2.24 Kg/Ha", "value": 92, "unit": "%"},
      {"measurement": "Percent Injury Corn", "setting": "Insecticide 2 3.36 kg/ha + Antidote 1 2.24 Kg/Ha, no herbicide", "value": 0, "unit": "%"},
      {"measurement": "corn injury safened", "setting": "sensitive genotype PN 3320", "value": 74, "unit": "%"},
      {"measurement": "corn injury safened", "setting": "tolerant genotype PN 3377", "value": 96, "unit": "%"}
    ]}
  ]
}
